According to PMC3833293 (ACS Chemical Biology, 2013):

Key:
[1] = tested on: wild-type and drug-resistant HIV clones; assay: Monogram drug susceptibility assays, profile across viral panel; format: cell-based, HIV-1; settings: weakest EC50 to a variant divided by that to wild-type
[2] = biological target: wild-type HIV-1 protease (Human immunodeficiency virus type 1 group M subtype B, UniProt P03369); assay: FRET enzyme inhibition assay, wild-type protease; format: biochemical
[3] = tested on: wild-type HIV-1 protease and drug-resistant variants M1, M2, M3, M4; assay: FRET enzyme inhibition, profile across wild type and mutant panel; format: biochemical; settings: weakest Ki to a drug-resistant variant divided by Ki to wild type
[4] = biological target: HIV-1 protease M2 (D30N, N88D) (Human immunodeficiency virus type 1 group M subtype B, UniProt P03369, D520N/N578D); assay: FRET enzyme inhibition assay, M2 variant; format: biochemical
[5] = biological target: HIV-1 protease M4 (I50V, A71V) (Human immunodeficiency virus type 1 group M subtype B, UniProt P03369, A561V/I540V); assay: FRET enzyme inhibition assay, M4 variant; format: biochemical

`CC[C@H](C)[C@H](NC(C)=O)C(=O)N[C@@H](Cc1ccccc1)[C@H](O)CN(CC(C)C)S(=O)(=O)c1ccc(OC)cc1` [AF-68] was tested. Which worst-fold activity loss [1] did it give?
Its worst-fold activity loss is 4.4 fold.

For `CC[C@H](C)CN(C[C@@H](O)[C@H](Cc1ccccc1)NC(=O)c1cccc(O)c1)S(=O)(=O)c1ccc(-c2ccno2)s1` [AF-71], which “loss in affinity to wild-type protease compared to parent compound” value ([2]; AF-71 vs AD-93, AF-80 vs KB-83) is on record?
Its value is 72 fold.

Which worst-fold activity loss [1] does the source give for `O=C(N[C@@H](Cc1ccccc1)[C@H](O)CN(CC1CCCCC1)S(=O)(=O)c1ccc2ncsc2c1)c1cccc(O)c1` [AF-72] here?
The worst-fold activity loss was 2.6 fold.

With `COc1ccc(S(=O)(=O)N(CC2CCCCC2)C[C@@H](O)[C@H](Cc2ccccc2)NC(=O)c2cccc(O)c2)cc1` [AF-77] as the compound, how does the worst-fold activity loss [1] read?
Its worst-fold activity loss is 2.2 fold.

For `COc1ccc(S(=O)(=O)N(CCCc2ccccc2)C[C@@H](O)[C@H](Cc2ccccc2)NC(=O)c2cccc(O)c2)cc1` [AF-78], which worst-fold affinity loss [3] is on record?
Its worst-fold affinity loss is 98 fold.

`CC[C@H](C)CN(C[C@@H](O)[C@H](Cc1ccccc1)NC(=O)[C@@H](NC(C)=O)[C@@H](C)CC)S(=O)(=O)c1ccc2ncsc2c1` [AG-23] was tested. Which Ki [4] did it give?
Its Ki is 0.028 ± 0.025 nM.

And the worst-fold activity loss [1]?
Its worst-fold activity loss is 3.2 fold.

What about the Ki ([2]; Ki, wild type, mean ± standard deviation) of the same compound?
The Ki was 0.021 ± 0.009 nM.

What about the Ki [5] of the same compound?
The Ki was 0.092 ± 0.025 nM.
